Results reported in patent publication US7767819B2, “Thiazolylimidazole derivatives and their use as inhibitors of microsomal triglyceride transfer protein” (Merck Patent GmbH, priority 2004, dated 2010).

Tests used:
[1] = target: T1, microsomal triglyceride transfer protein (MTP) (Mesocricetus auratus, UniProt P55158); assay: Inhibition of MTP activity (transfer of [3H]-triolein from donor liposomes to biotinylated LDL, SPA); assay type: biochemical; settings: MTP from golden hamster liver microsomes; incubation 18-24 hours at 37° C.; read-out: IC50 (concentration that allows a 50% inhibition of MTP)
T1 construct: The supernatant comprising the soluble MTP is dialysed against Tris/HCl 150 mM; from tissue; host or cells: golden hamster liver microsomes, deoxycholate-solubilised supernatant
T1 sequence (P55158 19-895): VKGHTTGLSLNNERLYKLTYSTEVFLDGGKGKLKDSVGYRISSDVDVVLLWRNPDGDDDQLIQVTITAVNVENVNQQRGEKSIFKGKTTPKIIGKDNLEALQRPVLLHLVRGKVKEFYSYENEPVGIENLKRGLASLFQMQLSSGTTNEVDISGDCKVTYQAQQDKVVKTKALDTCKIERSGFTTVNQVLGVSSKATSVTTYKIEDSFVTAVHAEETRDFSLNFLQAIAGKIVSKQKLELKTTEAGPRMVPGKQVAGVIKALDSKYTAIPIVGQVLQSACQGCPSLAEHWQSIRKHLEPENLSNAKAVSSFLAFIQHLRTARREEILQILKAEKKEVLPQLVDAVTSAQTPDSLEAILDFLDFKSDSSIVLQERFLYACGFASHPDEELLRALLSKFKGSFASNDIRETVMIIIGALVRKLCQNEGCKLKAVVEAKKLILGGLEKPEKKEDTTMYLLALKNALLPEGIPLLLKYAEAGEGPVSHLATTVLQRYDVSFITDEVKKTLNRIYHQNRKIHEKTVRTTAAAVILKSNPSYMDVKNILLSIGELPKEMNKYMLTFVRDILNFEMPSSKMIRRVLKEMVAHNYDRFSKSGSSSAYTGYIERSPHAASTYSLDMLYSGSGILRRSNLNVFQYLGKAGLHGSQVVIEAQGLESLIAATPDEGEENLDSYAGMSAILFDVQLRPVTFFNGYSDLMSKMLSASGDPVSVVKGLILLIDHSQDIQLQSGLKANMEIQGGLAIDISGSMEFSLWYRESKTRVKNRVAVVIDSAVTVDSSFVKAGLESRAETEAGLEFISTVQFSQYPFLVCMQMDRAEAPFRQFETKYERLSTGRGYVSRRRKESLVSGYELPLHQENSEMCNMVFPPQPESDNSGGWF
Experimental: Analysis of the Inhibition of MTP Activity
The inhibition of the activity of microsomal triglyceride transfer protein (MTP) was tested by using the following operating protocol.
The inhibition of MTP activity with a compound can be quantified by observing the inhibition of the transfer of a labelled triglyceride, from a donor particle to an acceptor particle, in the presence of MTP. The procedure for the preparation of MTP is based on the method by Wetterau and Zilversmit (Biochem. Biophys. Acta (1986) 875, 610). A few grams of golden hamster liver are taken and then rinsed several times in a 250 mM sucrose solution at 0° C. All the following steps proceed at +4° C. A homogenate at a concentration of 50% in 250 mM sucrose is prepared using a Teflon mill and then centrifuged for 10 minutes at 10 000×g at +4° C. The supernatant is then centrifuged at 105 000×g for 75 minutes at +4° C. The supernatant is discarded and the microsomal pellet is taken up in 3 ml (per g of starting liver) of Tris/HCl 150 mM pH 8.0. 1 ml aliquot fractions are stored at −80° C. until the time of use.
After thawing a fraction of microsomes (1 ml), 12 ml of refrigerated Tris/HCl 50 mM, KCl 50 mM, MgCl2 5 mM pH 7.4 buffers and 1.2 ml of deoxycholate (0.54% in water) are added. After incubation for 30 minutes at +4° C. with gentle agitation, the suspension is centrifuged at 105 000×g for 75 minutes. The supernatant comprising the soluble MTP is dialysed against Tris/HCl 150 mM, NaCl 40 mM, EDTA 1 mM, 0.02% sodium azide pH 7.4 buffer (5 times one litre over 2-3 days). The MTP is stored at +4° C., is stable for at least 30 days and is used in unmodified form in the test.
The donor particles (liposomes) are prepared from 208 μl of L-phosphatidylcholine at a concentration of 10 mg/ml in chloroform, and 480 μl of [3H]-triolein at a concentration of 0.5 mCi/ml in toluene. After stirring, the solution is evaporated under nitrogen, taken up in 6 ml of Tris/HCl 50 mM, KCl 50 mM, MgCl2 5 mM pH 7.4 buffer and incubated in an ultrasound bath for 30 minutes at room temperature. The liposomes are stored at +4° C. and sonicated again for 10 minutes before each use.
The acceptor particles are biotinylated low density lipoproteins (LDL-biot). These particles are supplied by the company Amersham.
The reaction mixture is prepared in untreated ½ well white plates (Corning Costar) by addition, in the following order, of: 5 μl of HEPES 50 mM, NaCl-150 mM, BSA 0.1% (w/v), 0.05% sodium azide (w/v), pH 7.4 buffer; 5 μl of liposomes; 5 μl of LDL-biot; 5 μl of test products in DMSO; 5 μl of MTP. After incubation for 18-24 hours at 37° C., the reaction is stopped by adding 100 μl of Amersham SPA (scintillation proximity assay) beads coupled to streptavidin, and the radioactivity is counted using a Top Count (Packard) machine at least one hour later. The inhibition of the transfer of the triglycerides with a compound is reflected by a reduction in the transferred radioactivity.
The results are expressed in terms of the IC50, i.e. the concentration that allows a 50% inhibition of MTP.

[2] = test system: apo B secretion in HepG2 cells; assay: Secretion of apo B in the HepG2 human cell line (sandwich ELISA); assay type: cell-based; settings: 24 hours incubation, culture supernatant, ELISA for human apo B, read-out: IC50 (concentration that produces a 50% inhibition of apo B secretion in the HepG2 cells)
Experimental: Analysis of the Secretion of Apo B in the HepG2 Human Cell Line:
The activity of a compound according to the invention can be evaluated by measuring the inhibition of apo B secretion in HepG2 cells.
The HepG2 cells (ECACC-No. 85011430) are used as model in the study of the in vitro hepatic secretion of lipoproteins (Dixon J. and Ginsberg H., J. Lipid. Res., 1993, 34, 167-179).
The HepG2 cells are cultured in Dulbecco's modified Eagle's medium comprising 10% foetal calf serum (DMEM and FBS-Gibco) in 96-well plates under an atmosphere of 5% carbon dioxide for 24 hours (about 70% confluence).
The test compounds are dissolved at a concentration of 2 or 10 mM in dimethyl sulfoxide (DMSO). Serial dilutions (1:3.16) are made in DMSO and are:added (1:200—Robot Multimek Beckman) to the growth medium (200 μl) and then finally incubated for 24 hours in the various wells containing the HepG2 cells.
The 24-hour culture supernatant diluted to 1:5 (phosphate-buffered saline: PBS comprising 1% bovine serum albumin) is tested according to a sandwich-ELISA method specific for human apo B.
The results are expressed in terms of IC50, i.e. the concentration that produces a 50% inhibition of apo B secretion in the HepG2 cells.

Structure (SMILES)	IC50 [1]	IC50 [2]
CCn1c(-c2csc(C3CCN(C(=O)c4cccc(C)c4-c4ccc(OC(F)(F)F)cc4)CC3)n2)nc(-c2ccccc2)c1C [Example 1, {4-[4-(1-Ethyl-5-methyl-4-phenyl-1H-imidazol-2-yl)thiazol-2-yl]piperid-1-yl}(6-methyl-4′-trifluoromethoxybiphenyl-2-yl)methanone]	320 nM	369 nM
Cc1c(-c2ccccc2)nc(-c2csc(C3CCN(C(=O)c4ccccc4-c4ccc(C(F)(F)F)cc4)CC3)n2)n1C [Example 2, {4-[4-(1,5-dimethyl-4-phenyl-1H-imidazol-2-yl)thiazol-2-yl]piperid-1-yl}(4′-trifluoromethylbiphenyl-2-yl)methanone]	300 nM	616 nM
CCn1c(-c2csc(C3CCN(C(=O)c4ccccc4-c4ccc(C(F)(F)F)cc4)CC3)n2)nc(-c2ccccc2)c1C [Example 3, {4-[4-(1-ethyl-5-methyl-4-phenyl-1H-imidazol-2-yl)thiazol-2-yl]piperid-1-yl}(4′-trifluoromethylbiphenyl-2-yl)methanone]	270 nM	390 nM
CCn1c(-c2csc(C3CCN(C(=O)c4ccccc4-c4ccc(C(F)(F)F)cc4)CC3)n2)nc(-c2cccnc2)c1C [Example 4, {4-[4-(1-ethyl-5-methyl-4-(pyrid-3-yl)-1H-imidazol-2-yl)thiazol-2-yl]-piperid-1-yl}(4′-trifluoromethylbiphenyl-2-yl)methanone]	816 nM	1570 nM
CCn1c(-c2csc(C3CCN(C(=O)c4ccccc4-c4ccc(C(F)(F)F)cc4)CC3)n2)nc(-c2ccccn2)c1C [Example 5, {4-[4-(1-ethyl-5-methyl-4-(pyrid-2-yl)-1H-imidazol-2-yl)thiazol-2-yl]-piperid-1-yl}(4′-trifluoromethylbiphenyl-2-yl)methanone]	2540 nM	2620 nM
CCn1c(-c2csc(C3CCN(C(=O)c4cccc(C)c4-c4ccc(OC(F)(F)F)cc4)CC3)n2)nc(-c2ccccn2)c1C [Example 6, {4-[4-(1-ethyl-5-methyl-4-(pyrid-2-yl)-1H-imidazol-2-yl)thiazol-2-yl]-piperid-1-yl}(6-methyl-4′-trifluoromethoxybiphenyl-2-yl)methanone]	1830 nM	2300 nM
CCn1c(-c2csc(C3CCCN(C(=O)c4ccccc4-c4ccc(C(F)(F)F)cc4)C3)n2)nc(-c2ccccc2)c1C (stereo not shown) [Example 7, {3-[4-(1-ethyl-5-methyl-4-phenyl-1H-imidazol-2-yl)thiazol-2-yl]piperid-1-yl}(4′-trifluoromethylbiphenyl-2-yl)methanone]		2090 nM
